# Laboratory results published in patent publication US20140342914A1, “Method of Plant Growth with Bifenthrin” (priority 2013, published 2014).
# Test system: Corn seeds
# Experiment: Corn seedling growth enhancement, in-furrow application at different rates (Example 2)
# Format: in vivo
# Conditions: average of 8 replications
# Description: Ten corn seeds (Pioneer variety 33M53, treated with PONCHO® 250 Insecticide) were evenly spaced in a single, 2 cm deep, furrow in a planter box (25.5 cm by 11.5 cm) containing steam treated loam soil (pH 6.4, 4.3% organic matter. An aqueous suspension of CAPTURE® LFR Insecticide (17.5% bifenthrin) was sprayed as a T-band in-furrow application onto the uncovered seeds at a rate of 269 g ai/ha using a DeVries overhead track sprayer at a pressure of 40 psi and an application volume of 200 l/ha. The seeds were covered with soil and the planter boxes placed onto a lab cart with overhead lighting set at 14 hours on and 10 hours off and a room temperature of 21° C. Three replicate planter boxes (total of 30 seeds) were treated and three control planter boxes to which no CAPTURE® Insecticide was applied were included in the test. Each planter box was watered with 146 mL of tap water and re-watered with 50 mL of tap water along the furrow at 4 days after treatment (DAT). At four DAT there were 19 emerged seedlings in the treated planter boxes and 16 emerged seedlings in the untreated planter boxes. At five DAT all seeds had emerged and the seedlings were removed from the soil and the roots were gently rinsed in tap water to remove the soil. The seedlings were placed onto paper and the roots and shoots were measured from the seed to the tip of the tallest leaf and from the seed to the tip of the longest root and each seedling was weighed. Table 1 below summarizes the average shoot height; root length and seedling wet weight of the treated and untreated seeds.
# In a manner similar to Example 1, Corn seeds were treated in-furrow with different rates of CAPTURE® LFR or test solutions of technical bifenthrin (96% purity) dissolved in acetone and diluted with distilled water containing 0.1% Tween® 20 (Polyoxylethylene-sorbitan monolaurate available from SigmaAldrich). There were 8 replications of each treatment including the untreated control. Table 2 below summarizes the average shoot height, root length and seedling weight of the treated and untreated seeds.
smiles,measurement,setting,value
"Cc1c(COC(=O)[C@@H]2[C@H](/C=C(\Cl)C(F)(F)F)C2(C)C)cccc1-c1ccccc1 (racemic) [Technical Bifenthrin, 2-methylbiphenyl-3-ylmethyl (Z)-(1RS)-cis-3-(2-chloro-3,3,3-trifluoroprop-1-enyl)-2,2-dimethyl cyclopropanecarboxylate]",Root Length,4.68 g ai/ha in-furrow,20.8 cm
same,Seedling Weight,4.68 g ai/ha in-furrow,1.1 gm
same,Shoot Height,4.68 g ai/ha in-furrow,9.2 cm
same,Root Length,18.75 g ai/ha in-furrow,20.7 cm
same,Seedling Weight,18.75 g ai/ha in-furrow,1.1 gm
same,Shoot Height,18.75 g ai/ha in-furrow,9.5 cm
same,Root Length,75 g ai/ha in-furrow,21.5 cm
same,Seedling Weight,75 g ai/ha in-furrow,1.2 gm
same,Shoot Height,75 g ai/ha in-furrow,9.6 cm
same,Root Length,300 g ai/ha in-furrow,21.8 cm
same,Seedling Weight,300 g ai/ha in-furrow,1.1 gm
same,Shoot Height,300 g ai/ha in-furrow,9.5 cm
same,Root Length,1200 g ai/ha in-furrow,22.3 cm
same,Seedling Weight,1200 g ai/ha in-furrow,1.2 gm
same,Shoot Height,1200 g ai/ha in-furrow,9.9 cm
